Data set [1] can be described thus: CHI Log D measurement (chromatographic hydrophobicity index). Particulars: pH 7.4.
Procedure: Finally, to measure hydrophobicity, a CHI Log D measurement assay was employed. […] The retention time measurements were performed using reverse-phase HPLC and Q-Exactive mass spectrometer with Phenomenex Gemini C-18 column (3 uM, 50×3 mm). The reverse-phase chromatography was performed using a gradient of 10 mM ammonium acetate at pH=7.4 and acetonitrile solvents. Using the identical solvent setup, gradient, and flowrate, ProLock stapled peptides were injected onto the column to determine the tR of peptides. Using the calibration curve shown in FIG. 7, tR is converted into CHI. CHI was converted into CHI Log D using the following equation.
On the set-up of data set [2]: PAMPA Pe: dose or concentration left out as unconfirmed. As to conditions: for % Retention: PAMPA; for PAMPA Pe: 5 h, pH 7.4. Background: The PAMPA barrier holds no transporters, so it reflects passive diffusion.
A short description of another data set: in vitro. As to conditions: PAMPA. Set-up: dose or concentration left out as unconfirmed.

Positions of bridges follow the written chain, without caps; N, C: chain ends. Non-standard residues stand in square brackets, D forms with d. Residues, ends and D or L forms follow the SMILES beside them. αAllylPro = C=CC[C@@]1(C(=O)O)CCCN1; Ala(cPr) = N[C@@H](CC1CC1)C(=O)O; S5 = C=CCCC[C@](C)(N)C(=O)O
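Throughout, for % Retention: Phospholipid-membrane PAMPA, donor and acceptor in DPBS pH 7.4 with 5% DMSO, 37 °C for 5 h, compound in each well quantified by reverse-phase HPLC-MS.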
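Throughout, for PAMPA Pe (text): Phospholipid-membrane PAMPA, donor and acceptor in DPBS pH 7.4 with 5% DMSO, 37 °C for 5 h, compound in each well quantified by reverse-phase HPLC-MS.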
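Throughout, for PAMPA Pe: Phospholipid-membrane PAMPA, donor and acceptor in DPBS pH 7.4 with 5% DMSO, 37 °C for 5 h, compound in each well quantified by reverse-phase HPLC-MS.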
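Throughout, for Papp: Phospholipid-membrane PAMPA, donor and acceptor in DPBS pH 7.4 with 5% DMSO, 37 °C for 5 h, compound in each well quantified by reverse-phase HPLC-MS.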

On to `C=CCCC[C@](C)(NC(=O)[C@H](CC(C)C)NC(=O)[C@H](CC(C)C)NC(=O)[C@]1(CC=C)CCCN1C(C)=O)C(=O)N[C@@H](Cc1ccc(O)cc1)C(=O)N[C@@H](CC(C)C)C(=O)N[C@@H](CC(C)C)C(=O)N[C@@H](CC(=O)O)C(=O)N[C@@H](CC(=O)O)C(=O)NC` [PLL5-2 variant 5, Ac-PL3-Leu-Leu-S5-Tyr-Leu-Leu-Asp-Asp-NHMe] (Ac-[αAllylPro]LL[S5]YLLDD-NHMe), for which the chromatographic logD in data set [1] worked out at 1.8. In data set [2], the “PAMPA Pe (text)” value stood at 1.7 ×10⁻⁶ cm/s and the “% Retention” value came out at 90 ± 3%. For the same molecule, in the data set “in vitro” (pH 7.4, PAMPA Pe), the Papp at 5 h is 1.7 ± 0.4 ×10⁻⁶ cm/s.

For the molecule `CC(=O)CC(c1ccccc1)c1c(O)c2ccccc2oc1=O` (stereo not drawn) [Warfarin, reference compound], the “PAMPA Pe” value in data set [2] is 8.6 ± 0.3 (x10^−6) cm/sec. The Papp at 5 h is 8.6 ± 0.3 ×10⁻⁶ cm/s in the data set “in vitro” (pH 7.4, PAMPA Pe) and 7 to 11 ×10⁻⁶ cm/s in the data set “in vitro” (pH 7.4, average effective permeability (Pe) of control on accepted PAMPA plates).

In turn, `CNC(=O)[C@H](Cc1ccc(O)cc1)NC(=O)[C@@H](NC(=O)[C@H](CC(C)C)NC(=O)[C@H](CC(C)C)NC(=O)[C@H](CC(N)=O)NC(=O)[C@]1(C)CCCC=CC[C@]2(CCCN2)C(=O)N[C@@H](CCCCN)C(=O)N[C@@H](CC(C)C)C(=O)N1)[C@@H](C)O` (single isomer, unassigned) [PLL4-5 variant 1, H-PL3-Lys-Leu-S5-Asn-Leu-Leu-Thr-Tyr-NHMe] gave a chromatographic logD in data set [1] of 1.5. Moreover, the “% Retention” value in data set [2] was found to be 52 ± 8%. Moreover, in “in vitro” (pH 7.4, PAMPA Pe), the Papp at 5 h is not above 0.1 ×10⁻⁶ cm/s.

As for `CCCC[C@H](NC(=O)[C@H](CC(C)C)NC(=O)[C@]1(C)CCCC=CC[C@]2(CCCN2C(C)=O)C(=O)N[C@@H](C)C(=O)N[C@@H](CC(C)C)C(=O)N1)C(=O)N[C@@H](CC(C)C)C(=O)N[C@@H](C)C(=O)N[C@@H](Cc1ccc(O)cc1)C(=O)NC` (single isomer, unassigned) [PLL4-6, Ac-PL3-Ala-Leu-S5-Leu-Nle-Leu-Ala-Tyr-NHMe], in data set [1], the chromatographic logD amounted to 4. For the same molecule, in data set [2], the “% Retention” value came to 48 ± 3%. Besides, the Papp at 5 h in the data set “in vitro” (pH 7.4, PAMPA Pe) is not above 0.1 ×10⁻⁶ cm/s.

As for `C=CCCC[C@](C)(NC(=O)[C@H](CC(C)C)NC(=O)[C@H](CC(C)C)NC(=O)[C@]1(CC=C)CCCN1C(C)=O)C(=O)N[C@@H](CCCNC(=N)N)C(=O)N[C@@H](CC(C)C)C(=O)N[C@@H](CC(C)C)C(=O)N[C@@H](Cc1c[nH]cn1)C(=O)N[C@@H](CC(=O)O)C(=O)NC` [PLL7-9 variant 5, Ac-PL3-Leu-Leu-S5-Arg-Leu-Leu-His-Asp-NHMe] (Ac-[αAllylPro]LL[S5]RLLHD-NHMe), the chromatographic logD in data set [1] amounted to 2.5. In data set [2], the “% Retention” value turned out to be 91 ± 2%. The molecule also showed a Papp at 5 h in “in vitro” (pH 7.4, PAMPA Pe) of 0.5 ± 0.1 ×10⁻⁶ cm/s.

In data set [1], `CC(=O)N1CCC[C@]12CC=CCCC[C@@](C)(C(=O)N[C@@H](Cc1ccc(O)cc1)C(=O)N[C@@H](CC(C)C)C(=O)N[C@@H](CC(C)C)C(=O)N[C@@H](CC(=O)O)C(N)=O)NC(=O)[C@H](CC(C)C)NC(=O)[C@H](CC(C)C)NC2=O` (single isomer, unassigned) [PLL4-10 variant 3, Ac-PL3-Leu-Leu-S5-Tyr-Leu-Leu-Asp-NH2] came in with a chromatographic logD of 2.2. For the same molecule, the “% Retention” value in data set [2] came out at 106 ± 2%. The molecule further registered a Papp at 5 h in “in vitro” (pH 7.4, PAMPA Pe) of 0.3 ± 0.1 ×10⁻⁶ cm/s.

The molecule `CC(=O)N1CCC[C@]12CC=CCCC[C@@](C)(C(=O)N[C@@H](CC(N)=O)C(=O)N[C@@H](CC(C)C)C(=O)N[C@@H](CC(C)C)C(=O)N[C@H](C(=O)N[C@@H](Cc1ccc(O)cc1)C(N)=O)[C@@H](C)O)NC(=O)[C@H](CC(C)C)NC(=O)[C@H](CCCCN)NC2=O` (single isomer, unassigned) [PLL4-5 variant 3, Ac-PL3-Lys-Leu-S5-Asn-Leu-Leu-Thr-Tyr-NH2] showed a chromatographic logD in data set [1] of 1.6. Further, the “% Retention” value in data set [2] worked out at 78 ± 8%. This molecule also displayed a Papp at 5 h in the data set “in vitro” (pH 7.4, PAMPA Pe) of 0.4 ± 0.1 ×10⁻⁶ cm/s.

In the case of `CNC(=O)[C@H](CC(=O)O)NC(=O)[C@H](CCC(N)=O)NC(=O)[C@H](CC(C)C)NC(=O)[C@H](CC(C)C)NC(=O)[C@H](Cc1ccc(O)cc1)NC(=O)[C@]1(C)CCCC=CCCC[C@](C)(NC(C)=O)C(=O)N[C@@H](C)C(=O)N[C@@H](CC2CC2)C(=O)N[C@@H](CC(C)C)C(=O)N1` [PLL7-7 variant 4, Ac-S5-Ala-Cpa-Leu-S5-Tyr-Leu-Leu-Gln-Asp-NHMe] (Ac-[S5]A[Ala(cPr)]L[S5]YLLQD-NHMe; staple 1-5), the chromatographic logD in data set [1] is 2.4. The “% Retention” value in data set [2] came out at 75 ± 1%. This molecule yielded a Papp at 5 h in “in vitro” (pH 7.4, PAMPA Pe) not above 0.1 ×10⁻⁶ cm/s.

In data set [1], `CNC(=O)[C@H](Cc1ccc(O)cc1)NC(=O)[C@@H](NC(=O)[C@H](CC(C)C)NC(=O)[C@H](CC(C)C)NC(=O)[C@H](CC(N)=O)NC(=O)[C@]1(C)CCCC=CCCC[C@](C)(NC(C)=O)C(=O)N[C@@H](C)C(=O)N[C@@H](CCCCN)C(=O)N[C@@H](CC(C)C)C(=O)N1)[C@@H](C)O` [PLL4-5 variant 4, Ac-S5-Ala-Lys-Leu-S5-Asn-Leu-Leu-Thr-Tyr-NHMe] (Ac-[S5]AKL[S5]NLLTY-NHMe; staple 1-5) yielded a chromatographic logD of 2.2. Further, the “% Retention” value in data set [2] is 79 ± 3%. This molecule displayed a Papp at 5 h in “in vitro” (pH 7.4, PAMPA Pe) not above 0.1 ×10⁻⁶ cm/s.

In data set [1], `CC(=O)N1CCC[C@]12CC=CCCC[C@@](C)(C(=O)N[C@@H](Cc1ccc(O)cc1)C(=O)N[C@@H](CC(C)C)C(=O)N[C@@H](CC(C)C)C(=O)N[C@@H](CCC(N)=O)C(=O)N[C@@H](CC(=O)O)C(N)=O)NC(=O)[C@H](CC(C)C)NC(=O)[C@H](CC1CC1)NC2=O` (single isomer, unassigned) [PLL7-7 variant 3, Ac-PL3-Cpa-Leu-S5-Tyr-Leu-Leu-Gln-Asp-NH2] showed a chromatographic logD of 1.8. Also, the “% Retention” value in data set [2] turned out to be 75 ± 1%. This molecule displayed a Papp at 5 h in the data set “in vitro” (pH 7.4, PAMPA Pe) of 0.5 ± 0.1 ×10⁻⁶ cm/s.

Molecule `CNC(=O)[C@H](CC(=O)O)NC(=O)[C@H](CC(C)C)NC(=O)[C@H](CC(C)C)NC(=O)[C@H](Cc1ccc(O)cc1)NC(=O)[C@]1(C)CCCC=CCCC[C@](C)(NC(C)=O)C(=O)N[C@@H](C)C(=O)N[C@@H](CC(C)C)C(=O)N[C@@H](CC(C)C)C(=O)N1` [PLL4-10 variant 4, Ac-S5-Ala-Leu-Leu-S5-Tyr-Leu-Leu-Asp-NHMe] (Ac-[S5]ALL[S5]YLLD-NHMe; staple 1-5) gave a chromatographic logD in data set [1] of 2.9. Also, the “% Retention” value in data set [2] was determined as 74 ± 6%. This molecule gave an apparent permeability (Papp) at 5 h in “in vitro” (pH 7.4, PAMPA Pe) not above 0.1 ×10⁻⁶ cm/s.

`CNC(=O)[C@H](CC(=O)O)NC(=O)[C@H](CC(=O)O)NC(=O)[C@H](CC(C)C)NC(=O)[C@H](CC(C)C)NC(=O)[C@H](Cc1ccc(O)cc1)NC(=O)[C@]1(C)CCCC=CC[C@]2(CCCN2C(C)=O)C(=O)O[C@@H](CC(C)C)C(=O)N[C@@H](CC(C)C)C(=O)N1` (single isomer, unassigned) [PLL5-2 variant 2, Ac-PL3-Lec-Leu-S5-Tyr-Leu-Leu-Asp-Asp-NHMe] gave a logD in data set [1] of 1.9. Besides, in data set [2], the “% Retention” value was 47 ± 6%. Further, the Papp at 5 h in “in vitro” (pH 7.4, PAMPA Pe) was not above 0.1 ×10⁻⁶ cm/s.

Turning to `CNC(=O)[C@H](CC(N)=O)NC(=O)[C@H](CC(N)=O)NC(=O)[C@H](CC(C)C)NC(=O)[C@H](CC(C)C)NC(=O)[C@H](CC1CC1)NC(=O)[C@]1(C)CCCC=CC[C@]2(CCCN2C(C)=O)C(=O)N[C@@H](C)C(=O)N[C@@H](CC(C)C)C(=O)N1` (single isomer, unassigned) [PLL7-11, Ac-PL3-Ala-Leu-S5-Cpa-Leu-Leu-Asn-Asn-NHMe], the chromatographic logD in data set [1] was 2.6. In data set [2], the “% Retention” value worked out at 103 ± 2%. For the same molecule, in the data set “in vitro” (pH 7.4, PAMPA Pe), the Papp at 5 h turned out to be 0.9 ± 0.2 ×10⁻⁶ cm/s.

For “Ac-PL3-Lec-Leu-S5-Tyr-Leu-Leu-Asp-NHMe [PLL4-10 variant 2]”, in data set [2], the “PAMPA Pe” value is ≤0.1 (×10^−6) cm/sec and the “% Retention” value is listed as 92 ± 10%.

The term chromatographic logD denotes lipophilicity estimated from chromatographic retention. A word on the Papp: it is a coefficient for how fast a substance crosses the barrier. What is called logD is lipophilicity at a set pH, counting ionised and neutral species.

The record behind these values is patent US20230357320A1, “HELICAL STAPLED PEPTIDES AND USES THEREOF” (FOG PHARMACEUTICALS, INC., priority 2020, published 2023).
